From US8420655B2, “Benzimidazole inhibitors of leukotriene production” (Boehringer Ingelheim International GmbH, priority 2009, dated 2013)

Tests used:
ApoE−/−xCD4dnTβRII mice = details: via infusion, treated for four weeks; cited from earlier work
[1] = tested on: apoE/LDL-R double knockout mice; details: oral dosing, high-fat diet from 2 months of age to 6 months; cited from earlier work
apoE-deficient mice = details: cited from earlier work
human glomerulonephritis = details: clinical trial; cited from earlier work
[2] = tested on: biomarkers for myocardial infarction risk; details: clinical trials; cited from earlier work
[3] = biological target: T1, recombinant human FLAP protein (Homo sapiens, UniProt P20292); test: FLAP binding assay, displacement of iodinated (125I) FLAP inhibitor, Scintillation Proximity Assay format; details: [125I]L-691,831 probe, membrane protein from sf9 cells; read-out: hFLAP binding IC50
T1 construct: made in house; host or cells: Sf9 insect cells (membrane fraction, 100,000 x g pellet)
T1 sequence (P20292 1-161): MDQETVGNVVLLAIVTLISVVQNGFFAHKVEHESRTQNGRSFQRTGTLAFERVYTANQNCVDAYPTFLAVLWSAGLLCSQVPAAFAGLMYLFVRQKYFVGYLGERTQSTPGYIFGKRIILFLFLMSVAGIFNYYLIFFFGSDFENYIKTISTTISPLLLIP

Row | Structure (SMILES) | IC50 [3] | also measured
1 | CC(C)c1ccc2c(c1)c(SC(C)(C)C)c(CC(C)(C)C(=O)O)n2Cc1ccc(Cl)cc1 [MK-886] |  | decrease in plaque area in the aortic root (ApoE−/−xCD4dnTβRII mice): ~40%; decrease in plaque coverage in the aorta [1]: 56%; decrease in plaque coverage in the aortic root [1]: 43%
2 | C[C@H](C#Cc1ccc(Cc2ccc(F)cc2)s1)N(O)C(N)=O [VIA-2291] |  | effect on atherosclerosis (apoE-deficient mice): attenuate atherosclerosis
3 | CC(C)(C)Sc1c(CC(C)(C)C(=O)O)n(Cc2ccc(Cl)cc2)c2ccc(OCc3ccc4ccccc4n3)cc12 [MK-591] |  | effect on proteinuria (human glomerulonephritis): reduce proteinuria
4 | O=C(O)[C@@H](c1ccc(OCc2ccc3ccccc3n2)cc1)C1CCCC1 [DG-031] |  | effect on biomarkers for myocardial infarction risk [2]: dose-dependent suppression of several biomarkers
5 | Cc1nc(-c2ccccc2-c2nc3cc(-c4cnc(N)nc4)ccc3n2C(C)(C)C)n(C)n1 [5-{1-tert-Butyl-2-[2-(2,5-dimethyl-2H-1,2,4-triazol-3-yl)-phenyl]-1H-benzimidazol-5-yl}-pyrimidin-2-ylamine] | 1.8 nM | 
6 | CC(C)COC(=O)c1ncn(-c2ccc(C#N)cc2-c2nc3cc(-c4cnc(N)nc4)ccc3n2C(C)(C)C)n1 [1-{2-[5-(2-Amino-pyrimidin-5-yl)-1-tert-butyl-1H-benzoimidazol-2-yl]-4-cyano-phenyl}-1H-[1,2,4]triazole-3-carboxylic acid isobutyl ester] | 12.4 nM | 
7 | Cc1nc(C)n(-c2ccc(C#N)cc2-c2nc3cc(-c4cnc(N)nc4)ccc3n2C(C)(C)C)n1 [3-[5-(2-Amino-pyrimidin-5-yl)-1-tert-butyl-1H-benzoimidazol-2-yl]-4-(3,5-dimethyl-[1,2,4]triazol-1-yl)-benzonitrile] | 2.5 nM | 
8 | CC(C)(C)n1c(-c2cc(-c3nn[nH]n3)ccc2-n2cncn2)nc2cc(-c3cnc(N)nc3)ccc21 [5-{1-tert-Butyl-2-[5-(2H-tetrazol-5-yl)-2-[1,2,4]triazol-1-yl-phenyl]-1H-benzoimidazol-5-yl}-pyrimidin-2-ylamine] | 4.6 nM | 
9 | Cc1ccn(-c2ccc(Cl)cc2-c2nc3cc(-c4cnc(N)nc4)ccc3n2C(C)(C)C)n1 [5-{1-tert-Butyl-2-[5-chloro-2-(3-methyl-pyrazol-1-yl)-phenyl]-1H-benzimidazol-5-yl}-pyrimidin-2-ylamine] | 0.71 nM | 
10 | CC(C)(C)n1c(-c2ccccc2-c2ccno2)nc2cc(-c3cnc(N)nc3)ccc21 [5-[1-tert-butyl-2-(2-isoxazol-5-yl-phenyl)-1H-benzoimidazol-5-yl]-pyrimidin-2-ylamine] | 2.4 nM | 
11 | COCc1ccc(-n2cncn2)c(-c2nc3cc(-c4cnc(N)nc4)ccc3n2C(C)(C)C)c1 [5-[1-tert-Butyl-2-(5-methoxymethyl-2-[1,2,4]triazol-1-yl-phenyl)-1H-benzoimidazol-5-yl]-pyrimidin-2-ylamine] | 13.9 nM | 
12 | Cn1ncnc1-c1ccc(F)cc1-c1nc2cc(-c3cnc(N)nc3)ccc2n1C(C)(C)C [5-{1-tert-Butyl-2-[5-fluoro-2-(2-methyl-2H-1,2,4-triazol-3-yl)-phenyl]-1H-benzimidazol-5-yl}-pyrimidin-2-ylamine] | 1.6 nM | 
13 | CC(C)(C)n1c(-c2cc(CO)ccc2-n2cncn2)nc2cc(-c3cnc(N)nc3)ccc21 [{3-[5-(2-Amino-pyrimidin-5-yl)-1-tert-butyl-1H-benzoimidazol-2-yl]-4-[1,2,4]triazol-1-yl-phenyl}-methanol] | 10.4 nM | 
14 | CN(C)C(=O)Oc1ccc(-n2cncn2)c(-c2nc3cc(-c4cnc(N)nc4)ccc3n2C(C)(C)C)c1 [Dimethyl-carbamic acid 3-[5-(2-amino-pyrimidin-5-yl)-1-tert-butyl-1H-benzimidazol-2-yl]-4-1,2,4-triazol-1-yl-phenyl ester] | 15.5 nM | 
15 | COc1ccc(-c2nc3cc(-c4cnc(N)nc4)ccc3n2C(C)(C)C)c(-n2cncn2)c1 [5-[1-tert-Butyl-2-(4-methoxy-2-1,2,4-triazol-1-yl-phenyl)-1H-benzimidazol-5-yl]-pyrimidin-2-ylamine] | 2.9 nM | 
